Measured values taken from article PMC9088703 (RSC Advances, 2018).
Like-named read-outs stand apart in the source and are kept apart here. Blank lines part the entries; values can stand above or below the compound they belong to.

What was measured:
BSA [1] = target: T1, BSA (Bos taurus, UniProt P02769); type: in vitro ADME, bovine; conditions: for Effect on the plasma protein binding of metoprolol: BSA, metoprolol 0.5, 1 and 2 μg mL^−1, statistical results (p > 0.05); for fraction unbound at 60 min, 0.5 μg mL^−1 / fraction unbound at 60 min, 1 μg mL^−1 / fraction unbound at 60 min, 2 μg mL^−1: bovine, BSA solution
plasma protein = conditions: in humans; cited from earlier work
Nonspecific binding = type: in vitro ADME; conditions: concentration recovered after ultrafiltration
BSA [2] = target: T1, BSA; test: Plasma protein binding of metoprolol in BSA by ultrafiltration and UPLC; type: in vitro ADME, bovine; conditions: for C f: total free concentration in filtrate

T1 sequence (P02769 25-607): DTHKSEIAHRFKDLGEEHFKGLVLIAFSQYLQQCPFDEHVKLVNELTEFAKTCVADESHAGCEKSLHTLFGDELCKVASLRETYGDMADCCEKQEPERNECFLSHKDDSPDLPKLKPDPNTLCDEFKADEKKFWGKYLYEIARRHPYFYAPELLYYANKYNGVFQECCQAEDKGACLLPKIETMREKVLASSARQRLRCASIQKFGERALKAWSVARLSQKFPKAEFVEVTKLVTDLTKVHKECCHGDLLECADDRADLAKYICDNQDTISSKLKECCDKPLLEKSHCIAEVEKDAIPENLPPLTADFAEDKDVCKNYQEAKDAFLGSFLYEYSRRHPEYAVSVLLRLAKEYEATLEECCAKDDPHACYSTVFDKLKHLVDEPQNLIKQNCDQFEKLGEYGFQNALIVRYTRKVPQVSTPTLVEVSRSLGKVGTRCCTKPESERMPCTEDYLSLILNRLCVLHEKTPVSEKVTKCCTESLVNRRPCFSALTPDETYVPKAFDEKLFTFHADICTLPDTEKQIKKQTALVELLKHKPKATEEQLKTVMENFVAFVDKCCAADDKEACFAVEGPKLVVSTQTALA

Effect on the plasma protein binding of metoprolol (BSA [1]): unlikely to affect
Compound: C=C1CCC[C@]2(C)C[C@]3(O)OC(=O)C(C)=C3C[C@@H]12 [Atractylenolide III, atractylenolide III]

Effect on the plasma protein binding of metoprolol (BSA [1]): unlikely to affect
Compound: O=C(O)/C=C/c1ccccc1 [Cinnamic acid, cinnamic acid]

Effect on the plasma protein binding of metoprolol (BSA [1]): unlikely to affect
Compound: CC1(C)[C@@H](O[C@H]2O[C@H](C(=O)O)[C@@H](O)[C@H](O)[C@H]2O[C@@H]2O[C@H](C(=O)O)[C@@H](O)[C@H](O)[C@H]2O)CC[C@]2(C)[C@H]3C(=O)C=C4[C@@H]5C[C@@](C)(C(=O)O)CC[C@]5(C)CC[C@@]4(C)[C@]3(C)CC[C@@H]12 [Glycyrrhizic acid, glycyrrhizic acid]

Effect on the plasma protein binding of metoprolol (BSA [1]): unlikely to affect
Compound: O=C1C[C@@H](c2ccc(O[C@@H]3O[C@H](CO)[C@@H](O)[C@H](O)[C@H]3O)cc2)Oc2cc(O)ccc21 [Liquiritin, liquiritin]

C post (Nonspecific binding; added 0.5 μg mL^−1): 0.40 ± 0.02 µg/mL
C post (Nonspecific binding; added 1.0 μg mL^−1): 0.78 ± 0.03 µg/mL
C post (Nonspecific binding; added 2.0 μg mL^−1): 1.55 ± 0.05 µg/mL
fraction unbound at 60 min, 0.5 μg mL^−1 (BSA [1]; Plasma protein binding (with cinnamic acid), metoprolol 0.5 μg mL^−1 plus cinnamic acid 1 μg mL^−1, BSA): 0.741
fraction unbound at 60 min, 1 μg mL^−1 (BSA [1]; Plasma protein binding (with cinnamic acid), metoprolol 1 μg mL^−1 plus cinnamic acid 1 μg mL^−1, BSA): 0.693
fraction unbound at 60 min, 2 μg mL^−1 (BSA [1]; Plasma protein binding (with cinnamic acid), metoprolol 2 μg mL^−1 plus cinnamic acid 1 μg mL^−1, BSA): 0.716
fraction unbound at 60 min, 0.5 μg mL^−1 (BSA [1]; Plasma protein binding (with glycyrrhizic acid), metoprolol 0.5 μg mL^−1 plus glycyrrhizic acid 2 μg mL^−1, BSA): 0.721
fraction unbound at 60 min, 1 μg mL^−1 (BSA [1]; Plasma protein binding (with glycyrrhizic acid), metoprolol 1 μg mL^−1 plus glycyrrhizic acid 2 μg mL^−1, BSA): 0.717
fraction unbound at 60 min, 2 μg mL^−1 (BSA [1]; Plasma protein binding (with glycyrrhizic acid), metoprolol 2 μg mL^−1 plus glycyrrhizic acid 2 μg mL^−1, BSA): 0.704
fraction unbound at 60 min, 0.5 μg mL^−1 (BSA [1]; Plasma protein binding (with liquiritin), metoprolol 0.5 μg mL^−1 plus liquiritin 2 μg mL^−1, BSA): 0.74
fraction unbound at 60 min, 1 μg mL^−1 (BSA [1]; Plasma protein binding (with liquiritin), metoprolol 1 μg mL^−1 plus liquiritin 2 μg mL^−1, BSA): 0.708
fraction unbound at 60 min, 2 μg mL^−1 (BSA [1]; Plasma protein binding (with liquiritin), metoprolol 2 μg mL^−1 plus liquiritin 2 μg mL^−1, BSA): 0.701
C free (BSA [1]; metoprolol 0.5 μg mL^−1 plus atractylenolide III (0.1 μg mL^−1)): 0.37 ± 0.02 µg/mL
C f (BSA [1]; metoprolol 0.5 μg mL^−1 plus cinnamic acid 1 μg mL^−1): 0.37 ± 0.01 µg/mL
C free (BSA [1]; metoprolol 0.5 μg mL^−1 plus glycyrrhizic acid 2 μg mL^−1): 0.35 ± 0.02 µg/mL
C free (BSA [1]; metoprolol 0.5 μg mL^−1 plus liquiritin 2 μg mL^−1): 0.37 ± 0.01 µg/mL
C free (BSA [1]; metoprolol 1 μg mL^−1 plus atractylenolide III (0.1 μg mL^−1)): 0.70 ± 0.02 µg/mL
C f (BSA [1]; metoprolol 1 μg mL^−1 plus cinnamic acid 1 μg mL^−1): 0.69 ± 0.02 µg/mL
C free (BSA [1]; metoprolol 1 μg mL^−1 plus glycyrrhizic acid 2 μg mL^−1): 0.72 ± 0.02 µg/mL
C free (BSA [1]; metoprolol 1 μg mL^−1 plus liquiritin 2 μg mL^−1): 0.71 ± 0.03 µg/mL
C free (BSA [1]; metoprolol 2 μg mL^−1 plus atractylenolide III (0.1 μg mL^−1)): 1.40 ± 0.08 µg/mL
C f (BSA [1]; metoprolol 2 μg mL^−1 plus cinnamic acid 1 μg mL^−1): 1.44 ± 0.03 µg/mL
C free (BSA [1]; metoprolol 2 μg mL^−1 plus glycyrrhizic acid 2 μg mL^−1): 1.40 ± 0.03 µg/mL
C free (BSA [1]; metoprolol 2 μg mL^−1 plus liquiritin 2 μg mL^−1): 1.39 ± 0.03 µg/mL
fraction unbound at 60 min, 0.5 μg mL^−1 (BSA [2]; bovine, BSA solution): 0.718
fraction unbound at 60 min, 1 μg mL^−1 (BSA [2]; bovine, BSA solution): 0.703
fraction unbound at 60 min, 2 μg mL^−1 (BSA [2]; bovine, BSA solution): 0.716
C f (BSA [2]; metoprolol 0.5 μg mL^−1 alone): 0.36 ± 0.01 µg/mL
C f (BSA [2]; metoprolol 1 μg mL^−1 alone): 0.70 ± 0.02 µg/mL
C f (BSA [2]; metoprolol 2 μg mL^−1 alone): 1.45 ± 0.03 µg/mL
Compound: COCCc1ccc(OCC(O)CNC(C)C)cc1 (centres unmarked) [Metoprolol]
mean plasma protein binding (PPB) (plasma protein): 30.70 ± 2.76%
